Assays:
CDK1/cyclin B = biological target: T1, CDK1/cyclin B (Homo sapiens, UniProt P06493); assay: CDK family off-target kinase activity (Eurofins); format: biochemical
T1 construct: purchased Eurofins Pharma Discovery Services UK Ltd
Protocol: (§1) GFH009 inhibition activity against the CDK9/cyclin T1 complex as well as off-target CDK family reactivity were assayed by Eurofins Pharma Discovery Services UK Ltd., (Dundee, UK). Determination of off-target inhibition of other kinases was conducted by DiscoverX LeadHunter Discovery Services (Freemont, CA, USA.) GFH009 reactivity to GPCR family members was assayed by Wuxi AppTech (Shanghai, China).
(§2) The pharmacodynamic and mechanistic foundation for the
(§3) CDK9 inhibitor for the treatment of hematologic malignancies
(§4) Supplementary Table 1: Inhibitory action of GFH009 on other CDK family members
(§5) Various CDK/ Remaining enzymatic activity (%) after
(§6) cognate cyclin pairs tested exposure to GFH009 at a concentration of Selectivity vs. CDK9
(§7) (also on this page, place not known: www.oncotarget.com Oncotarget, Materials Supplementary)
(§8) (1 picture or pasted object on this page, not shown here)

CDK12/cyclin K = biological target: T2, CDK12/cyclin K (Homo sapiens, UniProt Q9NYV4); assay: CDK family off-target kinase activity (Eurofins); format: biochemical
T2 construct: purchased Eurofins Pharma Discovery Services UK Ltd
Protocol: as §1, §2, §3, §4, §5, §6, §7, §8

CDK14/cyclin Y = biological target: T3, CDK14/cyclin Y (Homo sapiens, UniProt O94921); assay: CDK family off-target kinase activity (Eurofins); format: biochemical
T3 construct: purchased Eurofins Pharma Discovery Services UK Ltd
Protocol: as §1, §2, §3, §4, §5, §6, §7, §8

CDK16/cyclin Y = biological target: T4, CDK16/cyclin Y (Homo sapiens, UniProt Q00536); assay: CDK family off-target kinase activity (Eurofins); format: biochemical
T4 construct: purchased Eurofins Pharma Discovery Services UK Ltd
Protocol: as §1, §2, §3, §4, §5, §6, §7, §8

CDK17/cyclin Y = biological target: T5, CDK17/cyclin Y (Homo sapiens, UniProt Q00537); assay: CDK family off-target kinase activity (Eurofins); format: biochemical
T5 construct: purchased Eurofins Pharma Discovery Services UK Ltd
Protocol: as §1, §2, §3, §4, §5, §6, §7, §8

CDK2/cyclin A = biological target: T6, CDK2/cyclin A (Homo sapiens, UniProt P24941); assay: CDK family off-target kinase activity (Eurofins); format: biochemical
T6 construct: purchased Eurofins Pharma Discovery Services UK Ltd
Protocol: as §1, §2, §3, §4, §5, §6, §7, §8

CDK2/cyclin E = biological target: T7, CDK2/cyclin E (Homo sapiens, UniProt P24941); assay: CDK family off-target kinase activity (Eurofins); format: biochemical
T7 construct: purchased Eurofins Pharma Discovery Services UK Ltd
Protocol: as §1, §2, §3, §4, §5, §6, §7, §8

CDK4/cyclin D3 = biological target: T8, CDK4/cyclin D3 (Homo sapiens, UniProt P11802); assay: CDK family off-target kinase activity (Eurofins); format: biochemical
T8 construct: purchased Eurofins Pharma Discovery Services UK Ltd
Protocol: as §1, §2, §3, §4, §5, §6, §7, §8

CDK5/p25 = biological target: T9, CDK5/p25 (Homo sapiens, UniProt Q00535); assay: CDK family off-target kinase activity (Eurofins); format: biochemical
T9 construct: purchased Eurofins Pharma Discovery Services UK Ltd
Protocol: as §1, §2, §3, §4, §5, §6, §7, §8

CDK5/p35 = biological target: T10, CDK5/p35 (Homo sapiens, UniProt Q00535); assay: CDK family off-target kinase activity (Eurofins); format: biochemical
T10 construct: purchased Eurofins Pharma Discovery Services UK Ltd
Protocol: as §1, §2, §3, §4, §5, §6, §7, §8

CDK7/cyclin H/MAT1 = biological target: T11, CDK7/cyclin H/MAT1 (Homo sapiens, UniProt P50613); assay: CDK family off-target kinase activity (Eurofins); format: biochemical
T11 construct: purchased Eurofins Pharma Discovery Services UK Ltd
Protocol: as §1, §2, §3, §4, §5, §6, §7, §8

M1 (muscarinic Ach) = M1 (muscarinic Ach) (Homo sapiens, UniProt P11229); assay: GPCR competitive antagonist (off-target inhibitory action) testing; format: cell-based
Source text: (§9) Supplementary Table 3: Results of off-target inhibitory action testing of GFH009 administered at
(§10) Competitive antagonist activity against GPCR type shown below
(§11) Target % Inhibitory Effect @ Max Dose
(§12) M1 (muscarinic Ach) 98.78
(§13) M2 (muscarinic Ach) 95.69
(§14) M3 (muscarinic Ach) 99.12

M2 (muscarinic Ach) = M2 (muscarinic Ach) (Homo sapiens, UniProt P08172); assay: as above; format: cell-based
Source text: as §9, §10, §11, §12, §13, §14

M3 (muscarinic Ach) = M3 (muscarinic Ach) (Homo sapiens, UniProt P20309); assay: as above; format: cell-based
Source text: as §9, §10, §11, §12, §13, §14

[1] = system: human hematological malignancy-derived cell lines; assay: Cell viability / antiproliferative activity by CellTiter Glo; format: cell-based; conditions: in 7 of the 10 lines tested, 24 hours of exposure
Protocol: Figure 3 Effect of GFH009 on cell proliferation in assorted human hematologic malignancy cell lines. Cell viability IC50s for GFH009 on human hematological malignancy-derived cell lines after 24 hours of exposure to the agent were determined using CellTiter Glo.
The antiproliferative activity of GFH009 was assessed in cultured cell lines derived from human hematological malignancies over a period of 24-hour in vitro assay readouts. Enitociclib was used as a comparator for experimental validation (provided by MedChem Express, Monmouth, NJ, USA). Cell growth was analyzed by CellTiter Glo in 96-well plates and detected via chemiluminescent signal. The absolute inhibitory concentration of 50% (AbsIC50 values of the drug were calculated by fitting the drug inhibition rate curve with the “log (inhibitor) versus response – variable slope (4 parameters)” model by using the Prism GraphPad 6 for Windows v6.01 software.

MV-4-11 = assay: Apoptosis by Annexin V/PI double staining, flow cytometry; format: cell-based, human; conditions: 6-hour treatment, DMSO control 6.4 ± 0.1%
Protocol: Figure 5 Apoptotic activity of GFH009 in human malignancy cell lines. Four cell lines, MV-4-11 (A), HL-60 (B), U937 (C), and NCI-H929 (D) were treated with different concentrations of GFH009 or enitociclib for 6 hours and harvested for cell apoptosis analysis using Annexin V/PI double staining. Data are presented as mean (SD) from multiple independent experiments. ^* P < 0.05, ^*** P < 0.001, ^**** P < 0.0001, one-way ANOVA with Dunnett’s test analysis compared to DMSO control group.
Initiation of apoptosis by GFH009 was assayed in multiple human cell lines, including MV-4-11, HL-60, U937, and NCI-H929. Cells were incubated at 37°C and 5% CO2 for 6 hours at final concentrations of 1 μM, 0.3 μM, 0.1 μM, 0.03 μM, and 0.01 μM for both GFH009 and Enitociclib. After drug treatment, cells were collected, and apoptosis determined using Annexin V-FITC and propidium iodide (PI) staining (Becton, Dickinson and Co, Franklin Lakes, NJ, USA). Samples were examined using an Attune NxT Flow Cytometer (Thermo Fisher Scientific, Waltham, MA, USA) within 1 hour of staining and analyzed using FlowJo vX.0.7 software. The apoptotic rate between groups was statistically compared by means of one-way ANOVA (Dunnett’s multiple comparisons test). Differences from the dimethyl sulfoxide (DMSO)-only treated control group was considered statistically significant at a P value of < 0.05. All plotting and statistical analysis were conducted using the Prism GraphPad 6 for Windows v6.01.

T4 sequence (Q00536 whole entry): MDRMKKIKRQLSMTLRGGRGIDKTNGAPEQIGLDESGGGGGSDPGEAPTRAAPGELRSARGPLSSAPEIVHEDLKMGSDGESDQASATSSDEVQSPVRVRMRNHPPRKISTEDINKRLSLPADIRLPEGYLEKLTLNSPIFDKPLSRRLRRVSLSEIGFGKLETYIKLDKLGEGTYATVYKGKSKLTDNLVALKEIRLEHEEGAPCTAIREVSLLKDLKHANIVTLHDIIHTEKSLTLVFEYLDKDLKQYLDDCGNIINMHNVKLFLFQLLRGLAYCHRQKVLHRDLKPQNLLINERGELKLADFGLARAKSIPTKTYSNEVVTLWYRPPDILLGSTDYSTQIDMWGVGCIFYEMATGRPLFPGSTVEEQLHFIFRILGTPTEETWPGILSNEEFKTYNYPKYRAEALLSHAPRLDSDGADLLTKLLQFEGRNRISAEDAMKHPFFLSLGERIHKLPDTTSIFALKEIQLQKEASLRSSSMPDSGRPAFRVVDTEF
T4 sequence (Q8ND76 whole entry partner): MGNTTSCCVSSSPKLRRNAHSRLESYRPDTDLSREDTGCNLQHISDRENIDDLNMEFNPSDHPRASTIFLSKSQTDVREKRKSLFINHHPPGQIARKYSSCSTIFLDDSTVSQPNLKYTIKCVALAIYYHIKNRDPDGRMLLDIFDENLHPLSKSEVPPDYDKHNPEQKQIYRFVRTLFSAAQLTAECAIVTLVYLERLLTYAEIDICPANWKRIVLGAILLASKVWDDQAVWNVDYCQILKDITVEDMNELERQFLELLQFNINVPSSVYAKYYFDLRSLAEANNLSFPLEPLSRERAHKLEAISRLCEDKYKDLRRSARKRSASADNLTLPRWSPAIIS
T1 sequence (P06493 whole entry): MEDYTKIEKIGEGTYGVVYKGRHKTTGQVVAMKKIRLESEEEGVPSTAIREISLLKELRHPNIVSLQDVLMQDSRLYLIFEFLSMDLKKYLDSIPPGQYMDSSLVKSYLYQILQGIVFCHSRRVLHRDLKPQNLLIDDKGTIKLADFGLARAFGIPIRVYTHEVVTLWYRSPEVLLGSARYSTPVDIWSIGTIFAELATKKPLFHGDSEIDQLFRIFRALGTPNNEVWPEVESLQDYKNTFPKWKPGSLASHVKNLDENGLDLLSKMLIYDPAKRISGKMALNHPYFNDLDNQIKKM
T1 sequence (P14635 whole entry partner): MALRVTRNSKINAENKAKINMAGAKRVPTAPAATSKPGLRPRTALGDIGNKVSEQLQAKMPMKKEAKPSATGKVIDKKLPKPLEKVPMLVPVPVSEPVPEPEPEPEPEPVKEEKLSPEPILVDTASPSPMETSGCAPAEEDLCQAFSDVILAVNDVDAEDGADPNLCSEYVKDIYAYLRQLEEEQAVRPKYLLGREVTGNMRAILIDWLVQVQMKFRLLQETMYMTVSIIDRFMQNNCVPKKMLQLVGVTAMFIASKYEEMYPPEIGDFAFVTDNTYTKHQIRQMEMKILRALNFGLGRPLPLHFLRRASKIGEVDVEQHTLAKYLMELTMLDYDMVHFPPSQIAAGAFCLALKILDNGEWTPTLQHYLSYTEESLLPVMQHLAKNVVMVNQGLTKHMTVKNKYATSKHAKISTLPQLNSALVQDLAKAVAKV
T3 sequence (O94921 whole entry): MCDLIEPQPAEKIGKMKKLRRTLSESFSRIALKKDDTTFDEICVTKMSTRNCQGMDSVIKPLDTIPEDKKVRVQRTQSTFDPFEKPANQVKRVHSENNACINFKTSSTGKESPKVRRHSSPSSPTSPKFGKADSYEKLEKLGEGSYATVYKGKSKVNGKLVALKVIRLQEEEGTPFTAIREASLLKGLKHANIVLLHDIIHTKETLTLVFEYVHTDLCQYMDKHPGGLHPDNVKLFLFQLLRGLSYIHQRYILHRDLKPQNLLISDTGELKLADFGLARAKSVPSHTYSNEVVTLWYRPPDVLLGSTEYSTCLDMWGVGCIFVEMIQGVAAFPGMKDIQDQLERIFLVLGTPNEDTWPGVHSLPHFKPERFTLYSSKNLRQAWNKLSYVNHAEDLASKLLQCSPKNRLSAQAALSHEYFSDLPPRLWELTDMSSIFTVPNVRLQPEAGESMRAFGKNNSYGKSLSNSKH
T3 sequence (Q8ND76 whole entry partner): as the sequence (Q8ND76 whole entry partner) above
T11 sequence (P50613 whole entry): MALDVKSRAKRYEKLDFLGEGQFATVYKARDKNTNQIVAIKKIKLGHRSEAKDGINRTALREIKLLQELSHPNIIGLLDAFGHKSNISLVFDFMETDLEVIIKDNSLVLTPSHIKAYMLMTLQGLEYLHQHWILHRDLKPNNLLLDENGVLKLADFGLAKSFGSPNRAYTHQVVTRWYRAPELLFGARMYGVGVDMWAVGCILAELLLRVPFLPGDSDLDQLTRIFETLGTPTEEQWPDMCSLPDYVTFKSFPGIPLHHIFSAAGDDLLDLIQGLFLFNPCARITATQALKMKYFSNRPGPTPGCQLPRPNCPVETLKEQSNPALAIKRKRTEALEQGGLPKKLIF
T11 sequence (P51946 whole entry partner): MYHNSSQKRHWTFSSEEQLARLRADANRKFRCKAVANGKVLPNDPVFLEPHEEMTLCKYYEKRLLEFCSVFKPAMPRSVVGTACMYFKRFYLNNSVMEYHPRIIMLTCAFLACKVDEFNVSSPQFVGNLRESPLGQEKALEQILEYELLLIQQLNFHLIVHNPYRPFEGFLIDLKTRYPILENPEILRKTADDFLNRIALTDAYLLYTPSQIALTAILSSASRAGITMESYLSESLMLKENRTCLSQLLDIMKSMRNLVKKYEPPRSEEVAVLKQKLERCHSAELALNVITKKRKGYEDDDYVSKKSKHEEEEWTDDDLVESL
T11 sequence (P51948 whole entry partner): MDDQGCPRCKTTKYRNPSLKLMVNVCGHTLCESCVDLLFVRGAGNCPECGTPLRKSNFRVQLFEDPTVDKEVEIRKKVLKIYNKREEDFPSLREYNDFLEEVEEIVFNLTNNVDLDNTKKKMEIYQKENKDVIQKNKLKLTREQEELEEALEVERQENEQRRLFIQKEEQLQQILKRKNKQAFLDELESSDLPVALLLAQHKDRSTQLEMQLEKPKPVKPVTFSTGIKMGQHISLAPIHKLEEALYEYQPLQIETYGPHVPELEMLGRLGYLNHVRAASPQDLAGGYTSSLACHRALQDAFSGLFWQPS
T8 sequence (P11802 whole entry): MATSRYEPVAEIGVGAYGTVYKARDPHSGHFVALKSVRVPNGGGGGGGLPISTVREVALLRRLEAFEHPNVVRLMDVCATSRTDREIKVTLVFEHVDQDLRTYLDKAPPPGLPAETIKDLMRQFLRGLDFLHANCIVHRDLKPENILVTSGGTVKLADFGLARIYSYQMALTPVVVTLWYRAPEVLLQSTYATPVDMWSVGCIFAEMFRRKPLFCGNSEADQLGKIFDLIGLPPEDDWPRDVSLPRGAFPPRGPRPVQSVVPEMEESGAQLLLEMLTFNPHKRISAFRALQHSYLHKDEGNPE
T8 sequence (P30281 whole entry partner): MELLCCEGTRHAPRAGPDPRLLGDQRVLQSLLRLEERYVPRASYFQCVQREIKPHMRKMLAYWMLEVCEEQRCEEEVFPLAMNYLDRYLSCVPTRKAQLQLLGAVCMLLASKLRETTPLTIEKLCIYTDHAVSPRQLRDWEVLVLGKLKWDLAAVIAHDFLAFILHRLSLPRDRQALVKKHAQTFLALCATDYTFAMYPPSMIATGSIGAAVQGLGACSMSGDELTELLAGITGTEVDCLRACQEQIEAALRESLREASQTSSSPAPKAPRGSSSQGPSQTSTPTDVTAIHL
T10 sequence (Q00535 whole entry): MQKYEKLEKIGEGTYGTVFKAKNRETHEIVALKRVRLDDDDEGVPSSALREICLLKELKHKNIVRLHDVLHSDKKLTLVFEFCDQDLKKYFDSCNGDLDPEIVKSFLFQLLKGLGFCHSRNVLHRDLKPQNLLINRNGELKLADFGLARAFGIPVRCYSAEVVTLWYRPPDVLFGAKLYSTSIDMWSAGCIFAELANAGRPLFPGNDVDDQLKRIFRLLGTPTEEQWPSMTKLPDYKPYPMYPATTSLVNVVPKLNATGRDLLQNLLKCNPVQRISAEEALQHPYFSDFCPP
T10 sequence (Q15078 2-307 partner limits assumed): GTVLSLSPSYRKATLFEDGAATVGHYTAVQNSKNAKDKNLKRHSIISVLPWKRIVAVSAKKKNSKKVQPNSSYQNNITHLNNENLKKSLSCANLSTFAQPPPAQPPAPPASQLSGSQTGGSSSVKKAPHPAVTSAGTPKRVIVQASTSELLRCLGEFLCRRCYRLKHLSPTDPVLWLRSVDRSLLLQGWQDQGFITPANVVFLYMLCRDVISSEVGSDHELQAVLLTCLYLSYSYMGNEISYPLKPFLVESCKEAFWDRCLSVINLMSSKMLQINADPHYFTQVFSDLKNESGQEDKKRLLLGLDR
T9 sequence (Q00535 whole entry): as the sequence (Q00535 whole entry) above
T9 sequence (Q15078 99-307 partner limits assumed): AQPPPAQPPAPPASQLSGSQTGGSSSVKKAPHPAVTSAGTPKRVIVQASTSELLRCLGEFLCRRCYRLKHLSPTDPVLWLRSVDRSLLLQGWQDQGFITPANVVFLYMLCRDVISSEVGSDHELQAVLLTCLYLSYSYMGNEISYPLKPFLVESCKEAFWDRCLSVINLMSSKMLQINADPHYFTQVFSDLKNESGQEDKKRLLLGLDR

COC[C@@H](C)NC1CCC(Nc2cc(-c3csc(NCC4(C#N)CCOCC4)n3)c(Cl)cn2)CC1 (stereo partly drawn) [GFH009]
Selectivity vs. CDK9 (CDK1/cyclin B): > 1000 | Remaining enzymatic activity (%) after exposure to GFH009 (CDK1/cyclin B; 1 µM): 97% | Remaining enzymatic activity (%) after exposure to GFH009 (CDK1/cyclin B; 10 µM): 50% | Selectivity vs. CDK9 (CDK12/cyclin K): > 1000 | Remaining enzymatic activity (%) after exposure to GFH009 (CDK12/cyclin K; 1 µM): 94% | Remaining enzymatic activity (%) after exposure to GFH009 (CDK12/cyclin K; 10 µM): 86% | Selectivity vs. CDK9 (CDK14/cyclin Y): > 100 | Remaining enzymatic activity (%) after exposure to GFH009 (CDK14/cyclin Y; 1 µM): 70% | Remaining enzymatic activity (%) after exposure to GFH009 (CDK14/cyclin Y; 10 µM): 39% | Selectivity vs. CDK9 (CDK16/cyclin Y): < 100 | Remaining enzymatic activity (%) after exposure to GFH009 (CDK16/cyclin Y; 1 µM): 23% | Remaining enzymatic activity (%) after exposure to GFH009 (CDK16/cyclin Y; 10 µM): 5% | Selectivity vs. CDK9 (CDK17/cyclin Y): < 100 | Remaining enzymatic activity (%) after exposure to GFH009 (CDK17/cyclin Y; 1 µM): 30% | Remaining enzymatic activity (%) after exposure to GFH009 (CDK17/cyclin Y; 10 µM): 7% | Selectivity vs. CDK9 (CDK2/cyclin A): > 1000 | Remaining enzymatic activity (%) after exposure to GFH009 (CDK2/cyclin A; 1 µM): 80% | Remaining enzymatic activity (%) after exposure to GFH009 (CDK2/cyclin A; 10 µM): 51% | Selectivity vs. CDK9 (CDK2/cyclin E): > 100 | Remaining enzymatic activity (%) after exposure to GFH009 (CDK2/cyclin E; 1 µM): 63% | Remaining enzymatic activity (%) after exposure to GFH009 (CDK2/cyclin E; 10 µM): 27% | Selectivity vs. CDK9 (CDK4/cyclin D3): > 100 | Remaining enzymatic activity (%) after exposure to GFH009 (CDK4/cyclin D3; 1 µM): 70% | Remaining enzymatic activity (%) after exposure to GFH009 (CDK4/cyclin D3; 10 µM): 41% | Selectivity vs. CDK9 (CDK5/p25): > 100 | Remaining enzymatic activity (%) after exposure to GFH009 (CDK5/p25; 1 µM): 79% | Remaining enzymatic activity (%) after exposure to GFH009 (CDK5/p25; 10 µM): 43% | Selectivity vs. CDK9 (CDK5/p35): > 100 | Remaining enzymatic activity (%) after exposure to GFH009 (CDK5/p35; 1 µM): 66% | Remaining enzymatic activity (%) after exposure to GFH009 (CDK5/p35; 10 µM): 43% | Selectivity vs. CDK9 (CDK7/cyclin H/MAT1): > 100 | Remaining enzymatic activity (%) after exposure to GFH009 (CDK7/cyclin H/MAT1; 1 µM): 67% | Remaining enzymatic activity (%) after exposure to GFH009 (CDK7/cyclin H/MAT1; 10 µM): 19% | % Inhibitory Effect @ Max Dose (10 µM) (M1 (muscarinic Ach)): 98.78% | % Inhibitory Effect @ Max Dose (10 µM) (M2 (muscarinic Ach)): 95.69% | % Inhibitory Effect @ Max Dose (10 µM) (M3 (muscarinic Ach)): 99.12% | IC50 [1]: < 200 nM | Apoptosis rate (MV-4-11; 0.01 μM): 6.3 ± 0.1% | Apoptosis rate (MV-4-11; 0.03 μM): 7.4 ± 0.3% | Apoptosis rate (MV-4-11; 0.1 μM): 38.1 ± 0.1% | Apoptosis rate (MV-4-11; 0.3 μM): 67.4 ± 1.0% | Apoptosis rate (MV-4-11; 1 μM): 61.2 ± 0.3%

Reference: publication PMC10732257 (Oncotarget, 2023)
